Laboratory results reported in article doi:10.1101/2024.12.09.627393 (bioRxiv, 2024).

Tested on: CECR2-BRD
Experiment: 2D 15N-HSQC NMR chemical shift perturbation titration
Assay type: binding, human
Settings: 15N-labeled CECR2-BRD, 25°C; 3% DMSO, or NVS-CECR2–1 including 3% DMSO
Description: CECR2-BRD was expressed and purified for NMR experiments following previously established methods, [18]. Briefly, uniformly labeled ^15N CECR2-BRD samples in buffer containing 20 mM Tris-HCl pH 6.8, 150 mM NaCl, 1 mM TCEP, and 10% D2O were purified at 0.30 mM for chemical-shift perturbation experiments.
All two-dimensional (2D) ^15N-HSQC (heteronuclear single quantum […]) experiments were acquired at 25°C using a 600 MHz Bruker AVANCE III spectrometer equipped with a z-gradient 1.7 mm TCI probe at the National Magnetic Resonance Facility at Madison (NMRFAM). The experimental setup for all 2D experiments was kept similar to our previous studies, [18]. […] Chemical Shift Perturbations (CSP) from the final titration point were calculated and normalized as described by Williamson[21], using the equation: Δδ=√ΔδH^2+α⋅ΔδN^2 Where α=0.2 for glycine, and 0.14 for all other residues. ΔδH and ΔδN represent chemical shifts in ppm for hydrogen and nitrogen atoms, respectively. […] These were calculated using the standard deviation (Δ ppm/ Standard deviation ppm, where standard deviation was calculated for each histone ligand) of the Euclidean chemical change of the residues as described previously, [18].

Row | SMILES | Chemical shift perturbations of CECR2-BRD residues (in words)
1 | C[S+](C)[O-] [DMSO] | significant (> 1 Δppm) shifts in residues within the ZA loop and BC loop region
2 | CCCS(=O)(=O)c1nc(NC2CC2)cc(-c2ccc3c(ccn3C3CC(C)(C)NC(C)(C)C3)c2)n1 [NVS-CECR2–1] | CSPs in some residues within αA, αB and αC helices
